Target: ITK enzyme (ITK FL, N-Flag and C-His tagged) (Homo sapiens (Human), UniProt Q08881)
Experiment: ITK enzyme assay (IL-2-inducible T-cell kinase activity)
Format: biochemical
Conditions: geometric mean of count n
Procedure: IL-2-Inducible T-Cell Kinase (ITK) Activity, IC50 (nM)
ITK activity was determined by measuring the effect of a test compound in an ITK enzyme assay.
1.0 M HEPES Buffer pH 7.5 solution was prepared as follows: 238.3 g HEPES free acid (Sigma) and 800 mL of water were combined, and the mixture was stirred until complete dissolution. The pH was adjusted to 7.5 via titration with 5N NaOH and the volume adjusted to 1000 mL. The solution was filtered and sterilized.
ITK assay buffer was prepared as follows: 50 mL of HPLC-grade water was treated with 2 mL of 1.0 M HEPES Buffer, 500 μL of 2% Gelatin (Sigma), 1.0 mL of aqueous MgCl2 solution (1.0 M), and 1.0 mL of aqueous glutathione solution (0.5 M), and the solution was mixed. The solution was brought to 99 mL in a graduated cylinder by addition of water and sterilized through a 0.2 μm filter. 0.1 mL of Brij-35™ Surfact-Amps™ Detergent Solution (10% w/v aqueous solution, ThermoFisher) and 1.0 mL of ATP (Teknova, 100 mM) were added and the solution was mixed.
The resulting solution was stored on ice. 30 Minutes prior to use, the enzyme solution was removed from ice and equilibrated to RT by incubation in a RT water bath.
Preparation of 4×ITK substrate solution was as follows: 50 mL of ITK assay buffer was treated with 100 μL of BTK peptide (China Peptide Company, 2 mM stock solution in DMSO). The tube was capped, mixed by gently inverting the tube, and then stored on ice. 30 Minutes prior to use, the substrate solution was removed from ice and equilibrated to RT by incubation in a RT water bath.
At the time of assay, 7.5 μL of the 1.33×ITK enzyme solution was added to plate wells containing 0.1 μL of varying concentrations of test compound in DMSO. The plate was incubated 30 min at RT. The plate wells were each treated with 2.5 uL of the 4×ITK substrate solution and the plate was sealed (TopSeal™, Perkin Elmer). The plate was spun at 1000 rpm for 30 sec and then incubated for 60 min at RT. The seal was removed, and each well was treated with 10 μL of Stop/Detect Buffer (20 mM HEPES pH 7.5, 0.01% gelatin, 1 nM LANCE PT66 (Perkin Elmer), 16.5 μg/ml Surelight APC (Perkin Elmer), 10 mM EDTA, 250 mM NaCl). The plate was again covered and was spun at 1000 rpm for 30 seconds. The plate was allowed to incubate overnight at RT and in a closed carrier to reduce dehydration. The seal was removed, and the fluorescence was read with a plate reader with an excitation wavelength of […] and an emission wavelength of 615 nm.

Sequence of ITK enzyme (ITK FL, N-Flag and C-His tagged) (Q08881 whole entry): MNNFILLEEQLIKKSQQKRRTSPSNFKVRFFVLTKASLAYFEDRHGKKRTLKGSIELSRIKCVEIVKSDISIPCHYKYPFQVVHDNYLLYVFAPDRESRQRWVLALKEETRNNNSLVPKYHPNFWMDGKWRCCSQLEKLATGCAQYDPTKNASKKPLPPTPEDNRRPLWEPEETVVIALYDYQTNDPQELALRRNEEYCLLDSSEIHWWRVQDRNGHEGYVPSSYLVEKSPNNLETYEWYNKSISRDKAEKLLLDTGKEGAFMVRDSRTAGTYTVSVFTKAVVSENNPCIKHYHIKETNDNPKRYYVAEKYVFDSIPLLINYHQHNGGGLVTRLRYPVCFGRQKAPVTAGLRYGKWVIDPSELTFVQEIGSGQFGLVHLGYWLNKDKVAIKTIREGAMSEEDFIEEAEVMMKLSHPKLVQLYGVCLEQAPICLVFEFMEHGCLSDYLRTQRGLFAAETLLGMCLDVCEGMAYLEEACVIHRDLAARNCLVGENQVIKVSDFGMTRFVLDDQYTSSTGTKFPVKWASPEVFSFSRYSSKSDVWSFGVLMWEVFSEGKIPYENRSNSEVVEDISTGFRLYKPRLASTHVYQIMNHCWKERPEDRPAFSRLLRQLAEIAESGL

SMILES	IC50 [µM]
Cc1cc2[nH]c(-c3n[nH]c4c3C[C@@H]3C[C@]3(C)C4)nc2cc1N(C)C(=O)CN1C[C@@H](C)O[C@H](C)C1 [Example 32, 2-((2R,6R)-2,6-Dimethylmorpholino)-N-methyl-N-(6-methyl-2-((4aS,5aR)-5a-methyl-1,4,4a,5,5a,6-hexahydrocyclopropa[f]indazol-3-yl)-1H-benzo[d]imidazol-5-yl)acetamide]	0.016
Cc1cc2[nH]c(-c3n[nH]c4c3C[C@@H]3C[C@]3(C)C4)nc2cc1N(C)C(=O)CN1C[C@H](C)O[C@@H](C)C1 [Example 33, 2-((2S,6S)-2,6-Dimethylmorpholino)-N-methyl-N-(6-methyl-2-((4aS,5aR)-5a-methyl-1,4,4a,5,5a,6-hexahydrocyclopropa[f]indazol-3-yl)-1H-benzo[d]imidazol-5-yl)acetamide]	0.011
Cc1cc2[nH]c(-c3n[nH]c4c3C[C@@H]3C[C@]3(C)C4)nc2cc1N(C)C(=O)CN1CCOCC1 [Example 34, N-Methyl-N-(6-methyl-2-((4aS,5aR)-5a-methyl-1,4,4a,5,5a,6-hexahydrocyclopropa[f]indazol-3-yl)-1H-benzo[d]imidazol-5-yl)-2-morpholinoacetamide]	0.01
Cc1cc2[nH]c(-c3n[nH]c4c3C[C@@H]3C[C@]3(C)C4)nc2cc1N(C)C(=O)CC1CCOCC1 [Example 35, N-Methyl-N-(6-methyl-2-((4aS,5aR)-5a-methyl-1,4,4a,5,5a,6-hexahydrocyclopropa[f]indazol-3-yl)-1H-benzo[d]imidazol-5-yl)-2-(tetrahydro-2H-pyran-4-yl)acetamide]	0.006
C[C@@H](C(=O)N(C)c1cc(Br)c2[nH]c(-c3n[nH]c4c3C[C@@H]3C[C@]3(C)C4)nc2c1)N1CCOCC1 [Example 37, (S)—N-(7-bromo-2-((4aS,5aR)-5a-methyl-1,4,4a,5,5a,6-hexahydrocyclopropa[f]indazol-3-yl)-1H-benzo[d]imidazol-5-yl)-N-methyl-2-morpholinopropanamide]	0.009
C[C@@H](C(=O)N(C)c1cc(C#N)c2[nH]c(-c3n[nH]c4c3C[C@@H]3C[C@]3(C)C4)nc2c1)N1CCOCC1 [Example 38, (S)—N-(7-cyano-2-((4aS,5aR)-5a-methyl-1,4,4a,5,5a,6-hexahydrocyclopropa[f]indazol-3-yl)-1H-benzo[d]imidazol-5-yl)-N-methyl-2-morpholinopropanamide]	0.007
COc1cc(N(C)C(=O)[C@H](C)N2CCOCC2)cc2nc(-c3n[nH]c4c3C[C@@H]3C[C@]3(C)C4)[nH]c12 [Example 40, (S)—N-(7-methoxy-2-((4aS,5aR)-5a-methyl-1,4,4a,5,5a,6-hexahydrocyclopropa[f]indazol-3-yl)-1H-benzo[d]imidazol-5-yl)-N-methyl-2-morpholinopropanamide]	0.019
C[C@@H](C(=O)N(C)c1cc(C(F)(F)F)c2[nH]c(-c3n[nH]c4c3C[C@@H]3C[C@]3(C)C4)nc2c1)N1CCOCC1 [Example 41, (S)—N-methyl-N-(2-((4aS,5aR)-5a-methyl-1,4,4a,5,5a,6-hexahydrocyclopropa[f]indazol-3-yl)-7-(trifluoromethyl)-1H-benzo[d]imidazol-5-yl)-2-morpholinopropanamide]	0.034
COCc1cc(N(C)C(=O)[C@H](C)N2CCOCC2)cc2nc(-c3n[nH]c4c3C[C@@H]3C[C@]3(C)C4)[nH]c12 [Example 42, (S)—N-(7-(methoxymethyl)-2-((4aS,5aR)-5a-methyl-1,4,4a,5,5a,6-hexahydrocyclopropa[f]indazol-3-yl)-1H-benzo[d]imidazol-5-yl)-N-methyl-2-morpholinopropanamide]	0.038
C[C@@H](C(=O)N(C)c1cc(Cl)c2[nH]c(-c3n[nH]c4c3C[C@@H]3C[C@]3(C)C4)nc2c1)N1CCOCC1 [Example 43, (S)—N-(7-chloro-2-((4aS,5aR)-5a-methyl-1,4,4a,5,5a,6-hexahydrocyclopropa[f]indazol-3-yl)-1H-benzo[d]imidazol-5-yl)-N-methyl-2-morpholinopropanamide]	0.016
CCc1cc(N(C)C(=O)[C@H](C)N2CCOCC2)cc2nc(-c3n[nH]c4c3C[C@@H]3C[C@]3(C)C4)[nH]c12 [Example 44, (S)—N-(7-ethyl-2-((4aS,5aR)-5a-methyl-1,4,4a,5,5a,6-hexahydrocyclopropa[f]indazol-3-yl)-1H-benzo[d]imidazol-5-yl)-N-methyl-2-morpholinopropanamide]	0.028
C[C@@H](C(=O)N(C)c1cc(CO)c2[nH]c(-c3n[nH]c4c3C[C@@H]3C[C@]3(C)C4)nc2c1)N1CCOCC1 [Example 45, (S)—N-(7-(hydroxymethyl)-2-((4aS,5aR)-5a-methyl-1,4,4a,5,5a,6-hexahydrocyclopropa[f]indazol-3-yl)-1H-benzo[d]imidazol-5-yl)-N-methyl-2-morpholinopropanamide]	0.017
Cc1c(F)c(N(C)C(=O)[C@H](C)N2CCOCC2)cc2nc(-c3n[nH]c4c3C[C@@H]3C[C@]3(C)C4)[nH]c12 [Example 47, (S)—N-(6-fluoro-7-methyl-2-((4aS,5aR)-5a-methyl-1,4,4a,5,5a,6-hexahydrocyclopropa[f]indazol-3-yl)-1H-benzo[d]imidazol-5-yl)-N-methyl-2-morpholinopropanamide]	0.029

Now from value to molecule:

IC50 [µM]	SMILES
0.017	C[C@@H](C(=O)N(C)c1cc(C(F)F)c2[nH]c(-c3n[nH]c4c3C[C@@H]3C[C@]3(C)C4)nc2c1)N1CCOCC1 [Example 48, (S)—N-(7-(difluoromethyl)-2-((4aS,5aR)-5a-methyl-1,4,4a,5,5a,6-hexahydrocyclopropa[f]indazol-3-yl)-1H-benzo[d]imidazol-5-yl)-N-methyl-2-morpholinopropanamide]
0.012	COCCOc1cc2[nH]c(-c3n[nH]c4c3C[C@@H]3C[C@]3(C)C4)nc2cc1N(C)C(=O)[C@H](C)N1CCOCC1 [Example 49, (S)—N-(6-(2-methoxyethoxy)-2-((4aS,5aR)-5a-methyl-1,4,4a,5,5a,6-hexahydrocyclopropa[f]indazol-3-yl)-1H-benzo[d]imidazol-5-yl)-N-methyl-2-morpholinopropanamide]
0.016	Cc1cc(N(C)C(=O)[C@H](C)N2CCOCC2)cc2nc(-c3n[nH]c4c3C[C@@H]3C[C@]3(C)C4)[nH]c12 [Example 50, (S)—N-methyl-N-(7-methyl-2-((4aS,5aR)-5a-methyl-1,4,4a,5,5a,6-hexahydrocyclopropa[f]indazol-3-yl)-1H-benzo[d]imidazol-5-yl)-2-morpholinopropanamide]
0.002	Cc1cc(N(C)C(=O)[C@H](C)N2CCOCC2)cc2nc(-c3n[nH]c4c3C[C@@H]3C(F)(F)[C@]3(C)C4)[nH]c12 [Example 51, (S)—N-(2-((4aS,5aR)-5,5-difluoro-5a-methyl-1,4,4a,5,5a,6-hexahydrocyclopropa[f]indazol-3-yl)-7-methyl-1H-benzo[d]imidazol-5-yl)-N-methyl-2-morpholinopropanamide]
0.121	Cc1cc2[nH]c(-c3n[nH]c4c3C[C@@H]3C[C@]3(C)C4)nc2cc1NC(=O)[C@H](C)N1CCOCC1 [Example 52, (S)—N-(6-methyl-2-((4aS,5aR)-5a-methyl-1,4,4a,5,5a,6-hexahydrocyclopropa[f]indazol-3-yl)-1H-benzo[d]imidazol-5-yl)-2-morpholinopropanamide]
0.272	CN(C(=O)CC1CCOCC1)c1cc2nc(-c3n[nH]c4c3C[C@@H]3C[C@]3(C)C4)[nH]c2cc1C#N [Example 54, N-(6-cyano-2-((4aS,5aR)-5a-methyl-1,4,4a,5,5a,6-hexahydrocyclopropa[f]indazol-3-yl)-1H-benzo[d]imidazol-5-yl)-N-methyl-2-(tetrahydro-2H-pyran-4-yl)acetamide]
0.005	C[C@@H](C(=O)N(C)c1cc(C#N)c2[nH]c(-c3n[nH]c4c3C[C@@H]3C[C@]3(C)C4)nc2c1)C1CCOCC1 [Example 55, (R)—N-(7-cyano-2-((4aS,5aR)-5a-methyl-1,4,4a,5,5a,6-hexahydrocyclopropa[f]indazol-3-yl)-1H-benzo[d]imidazol-5-yl)-N-methyl-2-(tetrahydro-2H-pyran-4-yl)propanamide]

Reference: patent US20230280220A1, “Benzimidazole Derivative Compounds and Uses Thereof” (Pfizer Inc., priority 2019, published 2023)
